Measurements reported in ChEMBL document CHEMBL3745645, “Synthesis, in vitro antitumor activity, dihydrofolate reductase inhibition, DNA intercalation and structure-activity relationship studies of 1,3,5-triazine analogues” (Bioorg Med Chem Lett, 2016).
The source made the active and inactive calls. No cut-off for these calls is given here.

Experiments:
Assay type in all cases: functional
T47D = experiment: Cytotoxicity against human T47D cells at 10 uM after 48 hrs by SRB assay; conditions: read-out: GI
RPMI-8226 = experiment: Cytotoxicity against human RPMI8226 cells at 10 uM after 48 hrs by SRB assay
Hs-578T = experiment: Cytotoxicity against human Hs 578T cells at 10 uM after 48 hrs by SRB assay
NCI-H322M = experiment: Cytotoxicity against human NCI-H322M cells at 10 uM after 48 hrs by SRB assay; conditions: read-out: GI
KM12 = experiment: Cytotoxicity against human KM12 cells at 10 uM after 48 hrs by SRB assay; conditions: KM12, 48 h, read-out: GI
[1] = Cytotoxicity against human HCT116 cells at 10 uM after 48 hrs by SRB assay; conditions: HCT-116, 48 h, read-out: GI
CCRF-CEM = experiment: Cytotoxicity against human CCRF-CEM cells at 10 uM after 48 hrs by SRB assay
786-0 = experiment: Cytotoxicity against human 786-0 cells at 10 uM after 48 hrs by SRB assay; conditions: 786-0, 48 h, read-out: GI
NCI-H522 = experiment: Cytotoxicity against human NCI-H522 cells at 10 uM after 48 hrs by SRB assay; conditions: NCI-H522, 48 h, read-out: GI
HCT-15 = experiment: Cytotoxicity against human HCT15 cells at 10 uM after 48 hrs by SRB assay
[2] = Cytotoxicity against human IGROV1 cells at 10 uM after 48 hrs by SRB assay; conditions: IGROV-1, 48 h, read-out: GI
[3] = Cytotoxicity against human DU145 cells at 10 uM after 48 hrs by SRB assay; conditions: DU-145, 48 h, read-out: GI
[4] = Cytotoxicity against human OVCAR4 cells at 10 uM after 48 hrs by SRB assay; conditions: OVCAR-4, 48 h, read-out: GI
MDA-MB-468 = experiment: Cytotoxicity against human MDA-MB-468 cells at 10 uM after 48 hrs by SRB assay; conditions: MDA-MB-468, 48 h, read-out: GI
U-251 = experiment: Cytotoxicity against human U251 cells at 10 uM after 48 hrs by SRB assay; conditions: U-251, 48 h, read-out: GI
A549 = experiment: Cytotoxicity against human A549 cells at 10 uM after 48 hrs by SRB assay; conditions: A549, 48 h, read-out: GI
[5] = Cytotoxicity against human BT549 cells at 10 uM after 48 hrs by SRB assay; conditions: BT-549, 48 h, read-out: GI
[6] = Cytotoxicity against human UO31 cells at 10 uM after 48 hrs by SRB assay; conditions: UO-31, 48 h, read-out: GI
K562 = experiment: Cytotoxicity against human K562 cells at 10 uM after 48 hrs by SRB assay
[7] = Cytotoxicity against human OVCAR3 cells at 10 uM after 48 hrs by SRB assay; conditions: OVCAR-3, 48 h, read-out: GI
TK-10 = experiment: Cytotoxicity against human TK10 cells at 10 uM after 48 hrs by SRB assay
[8] = Cytotoxicity against human SNB19 cells at 10 uM after 48 hrs by SRB assay; conditions: SNB-19, 48 h, read-out: GI
HT-29 = experiment: Cytotoxicity against human HT-29 cells at 10 uM after 48 hrs by SRB assay; conditions: HT-29, 48 h, read-out: GI
[9] = Cytotoxicity against human OVCAR8 cells at 10 uM after 48 hrs by SRB assay; conditions: OVCAR-8, 48 h, read-out: GI
[10] = Cytotoxicity against human SF268 cells at 10 uM after 48 hrs by SRB assay; conditions: SF-268, 48 h, read-out: GI
SN12C = experiment: Cytotoxicity against human SN12C cells at 10 uM after 48 hrs by SRB assay; conditions: read-out: GI
[11] = Cytotoxicity against human SF539 cells at 10 uM after 48 hrs by SRB assay; conditions: SF-539, 48 h, read-out: GI
NCI-H460 = experiment: Cytotoxicity against human NCI-H460 cells at 10 uM after 48 hrs by SRB assay; conditions: NCI-H460, 48 h, read-out: GI
SK-MEL-28 = experiment: Cytotoxicity against human SK-MEL-28 cells at 10 uM after 48 hrs by SRB assay
MDA-MB-231 = experiment: Cytotoxicity against human MDA-MB-231 cells at 10 uM after 48 hrs by SRB assay; conditions: MDA-MB-231, 48 h, read-out: GI
[12] = Cytotoxicity against human LOXIMVI cells at 10 uM after 48 hrs by SRB assay; conditions: LOX IMVI, read-out: GI
ACHN = experiment: Cytotoxicity against human ACHN cells at 10 uM after 48 hrs by SRB assay; conditions: read-out: GI
NCI/ADR-RES = experiment: Cytotoxicity against human NCI-ADR-RES cells at 10 uM after 48 hrs by SRB assay
[13] = Cytotoxicity against human SKOV3 cells at 10 uM after 48 hrs by SRB assay; conditions: SK-OV-3, 48 h, read-out: GI
[14] = Cytotoxicity against human SW620 cells at 10 uM after 48 hrs by SRB assay; conditions: SW-620, 48 h, read-out: GI
MCF7 = experiment: Cytotoxicity against human MCF7 cells at 10 uM after 48 hrs by SRB assay; conditions: MCF7, 48 h, read-out: GI
A498 = experiment: Cytotoxicity against human A498 cells at 10 uM after 48 hrs by SRB assay; conditions: A498, 48 h, read-out: GI
Malme-3M = experiment: Cytotoxicity against human MALME-3M cells at 10 uM after 48 hrs by SRB assay; conditions: read-out: GI
OVCAR-5 = experiment: Cytotoxicity against human OVCAR5 cells at 10 uM after 48 hrs by SRB assay
[15] = Cytotoxicity against human RXF393 cells at 10 uM after 48 hrs by SRB assay; conditions: RXF 393, 48 h, read-out: GI
[16] = Cytotoxicity against human HOP92 cells at 10 uM after 48 hrs by SRB assay; conditions: HOP-92, 48 h, read-out: GI
SK-MEL-2 = experiment: Cytotoxicity against human SK-MEL-2 cells at 10 uM after 48 hrs by SRB assay; conditions: SK-MEL-2, 48 h, read-out: GI
[17] = Cytotoxicity against human HCC2998 cells at 10 uM after 48 hrs by SRB assay; conditions: HCC 2998, 48 h, read-out: GI
[18] = Cytotoxicity against human UACC257 cells at 10 uM after 48 hrs by SRB assay; conditions: UACC-257, 48 h, read-out: GI
MOLT-4 = experiment: Cytotoxicity against human MOLT4 cells at 10 uM after 48 hrs by SRB assay
[19] = Cytotoxicity against human SNB75 cells at 10 uM after 48 hrs by SRB assay; conditions: SNB-75, 48 h, read-out: GI
NCI-H226 = experiment: Cytotoxicity against human NCI-H226 cells at 10 uM after 48 hrs by SRB assay; conditions: NCI-H226, 48 h, read-out: GI
MDA-MB-435 = experiment: Cytotoxicity against human MDA-MB-435 cells at 10 uM after 48 hrs by SRB assay; conditions: MDA-MB-435, 48 h, read-out: GI
[20] = Cytotoxicity against human COLO205 cells at 10 uM after 48 hrs by SRB assay; conditions: COLO 205, 48 h, read-out: GI
SR = experiment: Cytotoxicity against human SR cells at 10 uM after 48 hrs by SRB assay
[21] = Cytotoxicity against human SF295 cells at 10 uM after 48 hrs by SRB assay; conditions: SF-295, 48 h, read-out: GI
HL-60(TB) = experiment: Cytotoxicity against human HL-60(TB) cells at 10 uM after 48 hrs by SRB assay
[22] = Cytotoxicity against human Caki1 cells at 10 uM after 48 hrs by SRB assay; conditions: CAKI-1, 48 h, read-out: GI
SK-MEL-5 = experiment: Cytotoxicity against human SK-MEL-5 cells at 10 uM after 48 hrs by SRB assay; conditions: SK-MEL-5, 48 h, read-out: GI
[23] = Cytotoxicity against human HOP62 cells at 10 uM after 48 hrs by SRB assay; conditions: HOP-62, 48 h, read-out: GI
M14 = experiment: Cytotoxicity against human M14 cells at 10 uM after 48 hrs by SRB assay; conditions: M14, 48 h, read-out: GI

## Cc1nc2cc(Nc3nc(NCCN)nc(Nc4ccc(F)cc4)n3)ccc2n1Cc1ccccc1
T47D
  inhibition of growth at 10 µM: 30.9%
RPMI-8226
  growth inhibition (GI): Active
Hs-578T
  growth inhibition (GI): inactive
NCI-H322M
  inhibition of growth at 10 µM: 0.32%
KM12
  inhibition of growth at 10 µM: 29.4%
[1]
  inhibition of growth at 10 µM: 39.7%
CCRF-CEM
  growth inhibition (GI): Active
786-0
  inhibition of growth at 10 µM: 17.6%
NCI-H522
  inhibition of growth at 10 µM: 14.1%
HCT-15
  growth inhibition (GI): inactive
[2]
  inhibition of growth at 10 µM: 18.6%
[3]
  inhibition of growth at 10 µM: 17.8%
[4]
  inhibition of growth at 10 µM: 23%
MDA-MB-468
  inhibition of growth at 10 µM: 26.8%
U-251
  inhibition of growth at 10 µM: 22.6%
A549
  inhibition of growth at 10 µM: 16.1%
[5]
  inhibition of growth at 10 µM: 9.96%
[6]
  inhibition of growth at 10 µM: 10.7%
K562
  growth inhibition (GI): Active
[7]
  inhibition of growth at 10 µM: 13.3%
TK-10
  growth inhibition (GI): inactive
[8]
  inhibition of growth at 10 µM: 8.37%
HT-29
  inhibition of growth at 10 µM: 64.9%
[9]
  inhibition of growth at 10 µM: 10.9%
[10]
  inhibition of growth at 10 µM: 28.2%
SN12C
  inhibition of growth at 10 µM: 14.9%
[11]
  inhibition of growth at 10 µM: 3.98%
NCI-H460
  inhibition of growth at 10 µM: 17.4%
SK-MEL-28
  growth inhibition (GI): inactive
MDA-MB-231
  inhibition of growth at 10 µM: 39.6%
[12]
  inhibition of growth at 10 µM: 41.8%
ACHN
  inhibition of growth at 10 µM: 3.22%
NCI/ADR-RES
  growth inhibition (GI): inactive
[13]
  inhibition of growth at 10 µM: 4.49%
[14]
  inhibition of growth at 10 µM: 26.1%
MCF7
  inhibition of growth at 10 µM: 31.2%
A498
  inhibition of growth at 10 µM: 32.6%
Malme-3M
  inhibition of growth at 10 µM: 6.46%
OVCAR-5
  growth inhibition (GI): inactive
[15]
  inhibition of growth at 10 µM: 28%
[16]
  inhibition of growth at 10 µM: 51.5%
SK-MEL-2
  inhibition of growth at 10 µM: 9.54%
[17]
  inhibition of growth at 10 µM: 29.4%
[18]
  inhibition of growth at 10 µM: 9.53%
MOLT-4
  growth inhibition (GI): Active
[19]
  inhibition of growth at 10 µM: 15.8%
NCI-H226
  inhibition of growth at 10 µM: 4.61%
MDA-MB-435
  inhibition of growth at 10 µM: 19.6%
[20]
  inhibition of growth at 10 µM: 18%
SR
  growth inhibition (GI): Active
[21]
  inhibition of growth at 10 µM: 20.2%
HL-60(TB)
  growth inhibition (GI): Active
[22]
  inhibition of growth at 10 µM: 5.83%
SK-MEL-5
  inhibition of growth at 10 µM: 13.4%
[23]
  inhibition of growth at 10 µM: 20.9%
M14
  inhibition of growth at 10 µM: 18.4%
